Tested on: cirrhotic patients with HE
Test: Cognitive performance, HE patients on rifaximin vs only on lactulose (Example 2)
Type: in vivo, human
Source text: Patients with cirrhosis with or without HE were included for a one-time visit. We excluded patients with a current infection (defined by elevated white blood cell (WBC) count, clinical suspicion or fever), variceal bleeding within the last 4 weeks, on gut-absorbable antibiotics, or had alcohol or illicit drug intake within 3 months (checked by drug and alcohol screens). […] Patients in the “HE” group had suffered at least one HE episode within the last 3 months and were currently controlled on lactulose alone or lactulose with rifaximin.
During the visit, the subjects underwent a physical examination and measurement of body mass index (BMI), detailed analysis of medical records including current medications, a detailed dietary recall and collection of stool and blood samples. All subjects underwent a mini-mental status exam and only those scoring above 25 were included in the full study (14). Subsequently a recommended cognitive battery consisting of the following tests was administered; (a) Psychometric hepatic encephalopathy score (PHES), (b) block design test (subjects are required to replicate designs with given blocks in a timed manner) and (c) Inhibitory control test [ICT: Subjects are instructed to respond to alternating presentations of X and Y on the screen (targets) while inhibiting response when X and Y are not alternating (lures)] (5, 41). The PHES consists of number connection test-A/B (subjects are asked to “join the dots” between numbers or numbers and alphabets in a timed fashion), digit symbol (subjects are required to copy corresponding figures from a given list within 2 minutes), line drawing (time) and (errors): subjects are required to trace a line between two parallel lines and balance between speed and accuracy. Time required and the number of times the subject's line strays beyond the marked lines (errors) are recorded] and serial dotting (subjects are asked to dot the center of a group of blank circles)]. The PHES is a validated battery for cognitive dysfunction in cirrhosis and tests for psychomotor speed, visuo-motor coordination, attention and set-shifting(32). Block design tests for visuo-motor coordination. A high score on block, digit symbol and ICT targets and a low score on the rest indicate good performance.
Statistical analysis: Cirrhotics with HE were compared to those without HE with respect to BMI, inflammatory markers, cognitive performance and microbiome constituents. Unpaired t-tests were used to compare demographics, cognitive tests and inflammatory markers. Since the microbiome constituents tend to be sparse and non-parametrically distributed, we used Metastats to compare microbiome between stool and mucosa of patients with and without HE (42). Metastats performs statistical analysis (to investigate metagenomic differences) along with biomarker discovery (to evaluate specific features underlying these differences) based on repeated t statistics and Fisher's tests on random permutations (34). We also performed Metastats analysis between the mucosal microbiome compared to the stool microbiome in patients with HE and without HE and those in HE on or not on rifaximin. Principal Component Analysis (PCO) on the abundance tables and weighted and unweighted UNIFRAC analysis using the QIIME pipeline were also performed (22, 25). Subsequently, we analyzed the correlations between MELD score, BMI, inflammatory markers, cognitive tests and microbiome constituents using a correlation network analysis obtained through a customized statistical script in R (7) using a P-value cutoff of <0.05 and an R value >0.5 to identify the most significant relationships (4, 16).

OC[C@H]1O[C@@H](O[C@@H]2[C@@H](CO)OC(O)(CO)[C@H]2O)[C@H](O)[C@@H](O)[C@H]1O (mixture of isomers) [lactulose]
block design (high = good): 19.8 score
digit symbol (high = good): 38 score
targets (high = good): 90%
line tracing errors (high = poor): 44.9
line tracing time (high = poor): 127.3
lures (high = poor): 16.9 responses
number connection-A (high = poor): 52.25 s
number connection-B (high = poor): 145.8 s
serial dotting (high = poor): 84.0 s

Source: patent US20140179726A1, “GUT MICROFLORA AS BIOMARKERS FOR THE PROGNOSIS OF CIRRHOSIS AND BRAIN DYSFUNCTION” (priority 2011, published 2014)
